Patent US5756450A, “Water soluble monoesters as solubilisers for pharmacologically active compounds and pharmaceutical excipients and novel cyclosporin galenic forms” (Novartis Corporation, priority 1987, dated 1998)

Columns and labels:
[1] = Solubilisation in aqueous 10% saccharose monolaurate L-1695 solution (Example 12); assay type: physicochemical; details: aqueous solution of saccharose monolaurate L-1695, 10% by weight
Text: A solid solution is obtained by removing the water by freeze drying.

[2] = Water solubility of the active compound; assay type: physicochemical

SMILES	amount that can be solubilised per ml [1]	water solubility [2]
CC(=O)[C@H]1CC[C@H]2[C@@H]3CCC4=CC(=O)CC[C@]4(C)[C@H]3CC[C@]12C [Progesterone]	3 mg per ml	
Cc1ccc2c(-c3ccccc3)nc(=O)n(C(C)C)c2c1 [Proquazone, 1-isopropyl-7-methyl-4-phenyl-2(1H)-quinazolinone]	3 mg per ml	below 0.1 g/100 ml
